The values that follow come from patent US10093623B2, “Cyclic amides as MetAP-2 inhibitors” (MERCK PATENT GmbH, priority 2012, dated 2018).

pIC50: −log10 of the molar value.

The target of this test is MetAP-2 (Homo sapiens, UniProt P50579). Description: MetAP-2 activity measurement (coupled enzymatic reactions, Met-Arg-Ser substrate, dianisidine detection at 450 nm). The format is biochemical. As to conditions: Inhibition of MetAP-2; read-out: IC50 enzyme. In a few lines: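 Coupled continuous assay with Met-Arg-Ser tripeptide substrate: released methionine oxidised by L-amino acid oxidase to give H2O2, which peroxidase uses to oxidise dianisidine, followed at 450 nm. Activity taken as slope of absorbance versus time over the visually linear region; dianisidine extinction coefficient converts to mol Met per time.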
Chain of MetAP-2 (P50579 whole entry, species assumed): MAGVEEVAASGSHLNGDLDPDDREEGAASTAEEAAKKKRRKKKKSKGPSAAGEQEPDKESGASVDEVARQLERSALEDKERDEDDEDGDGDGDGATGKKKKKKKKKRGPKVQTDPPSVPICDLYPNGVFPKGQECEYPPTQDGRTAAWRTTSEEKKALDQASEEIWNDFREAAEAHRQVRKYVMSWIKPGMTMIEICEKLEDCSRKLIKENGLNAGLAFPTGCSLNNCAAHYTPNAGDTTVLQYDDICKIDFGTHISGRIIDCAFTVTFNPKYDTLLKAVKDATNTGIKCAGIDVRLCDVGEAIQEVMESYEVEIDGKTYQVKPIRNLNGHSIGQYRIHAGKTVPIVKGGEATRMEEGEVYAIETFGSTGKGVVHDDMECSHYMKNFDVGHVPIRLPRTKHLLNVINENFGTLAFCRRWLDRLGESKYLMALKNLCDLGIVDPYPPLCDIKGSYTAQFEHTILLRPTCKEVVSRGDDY

Turning to `CC(=O)N1C[C@@H]2[C@H](C1)[C@H]2N1CCC(O)(C(=O)NCc2cc(F)cc(Cl)c2)C1=O` (stereo partly drawn) [A231, N-(3-Chloro-5-fluorobenzyl)-1-((1S,5R,6S)-3-acetyl-3-aza-bicyclo[3.1.0]hex-6-yl)-3-hydroxy-2-oxopyrrolidine-3-carboxamide], the pIC50 was 5.00 to 6.00.
Consider `Cn1c(CN2CCC(O)(C(=O)NCc3cc(F)cc(Cl)c3)C2=O)nc2ccccc21` (stereo not drawn) [A232, N-(3-Chloro-5-fluorobenzyl)-3-hydroxy-1-(1-methyl-1H-benzimidazol-2-ylmethyl)-2-oxo-pyrrolidine-3-carboxamide], for which the pIC50 is 5.00 to 6.00.
Turning to `O=C(NCc1cc(F)cc(Cl)c1)C1(O)CCN([C@H]2CCNC2)C1=O` (stereo partly drawn) [A233, N-(3-Chloro-5-fluorobenzyl)-(S)-3-hydroxy-2-oxo-[1,3′]bipyrrolidinyl-3-carboxamide], the pIC50 is under 5.00.
For the molecule `O=C1CCc2cc(N3CC[C@](O)(C(=O)NCc4cc(F)c(F)cc4Cl)C3=O)ccc2N1` [A234, N-(2-Chloro-4,5-difluorobenzyl)-(S)-3-hydroxy-2-oxo-1-(2-oxo-1,2,3,4-tetrahydroquinolin-6-yl)-pyrrolidine-3-carboxamide], the pIC50 is 6.00 to 8.00.
For the molecule `O=C1CCc2cc(N3CC[C@](O)(C(=O)NCc4cc(Cl)c(F)cc4F)C3=O)ccc2N1` [A235, N-(5-Chloro-2,4-difluorobenzyl)-(S)-3-hydroxy-2-oxo-1-(2-oxo-1,2,3,4-tetrahydroquinolin-6-yl)-pyrrolidine-3-carboxamide], the pIC50 is 6.00 to 8.00.
Turning to `O=C1CCc2cc(N3CC[C@](O)(C(=O)NCc4c(F)cc(F)cc4F)C3=O)ccc2N1` [A236, N-(2,4,6-Trifluorobenzyl)-(S)-3-hydroxy-2-oxo-1-(2-oxo-1,2,3,4-tetrahydroquinolin-6-yl)-pyrrolidine-3-carboxamide], the pIC50 was 6.00 to 8.00.
With `O=C(NCc1cc(F)cc(Cl)c1)C1(O)CCN(CCc2ccc(F)cc2F)C1=O` (stereo not drawn) [A237, N-(3-Chloro-5-fluorobenzyl)-1-[2-(2,4-Difluorophenyl)ethyl]-3-hydroxy-2-oxopyrrolidine-3-carboxamide], the negative-log IC50 (pIC50) was 5.00 to 6.00.
For `NC(=O)c1c[nH]c2ccc(N3CC[C@](O)(C(=O)NCc4cc(F)cc(Cl)c4)C3=O)cc12` [A238, 5-[(S)-3-(3-Chloro-5-fluorobenzylcarbamoyl)-3-hydroxy-2-oxopyrrolidin-1-yl]-1H-indole-3-carboxamide] the value was 6.00 to 8.00; for `O=C1CCc2cc(N3CC[C@](O)(C(=O)NCc4ccc(Cl)cc4F)C3=O)ccc2N1` [A241, N-(4-Chloro-2-fluorobenzyl)-(S)-3-hydroxy-2-oxo-1-(2-oxo-1,2,3,4-tetrahydroquinolin-6-yl)-pyrrolidine-3-carboxamide], 6.00 to 8.00.
Take `O=C1CCc2cc(N3CC[C@](O)(C(=O)NCc4ccc(F)cc4Cl)C3=O)ccc2N1` [A242, N-(2-Chloro-4-fluorobenzyl)-(S)-3-hydroxy-2-oxo-1-(2-oxo-1,2,3,4-tetrahydroquinolin-6-yl)-pyrrolidine-3-carboxamide]: the pIC50 is 6.00 to 8.00.
For `O=C1CCc2cc(N3CC[C@](O)(C(=O)NCc4c(F)ccc(F)c4Cl)C3=O)ccc2N1` [A244, N-(2-Chloro-3,6-difluorobenzyl)-(S)-3-hydroxy-2-oxo-1-(2-oxo-1,2,3,4-tetrahydroquinolin-6-yl)-pyrrolidine-3-carboxamide] the value was 6.00 to 8.00.
For `O=C1CCc2cc(N3CC[C@](O)(C(=O)NCc4cc(F)c(F)cc4F)C3=O)ccc2N1` [A245, N-(2,4,5-Trifluorobenzyl)-(S)-3-hydroxy-2-oxo-1-(2-oxo-1,2,3,4-tetrahydroquinolin-6-yl)-pyrrolidine-3-carboxamide] the value was 6.00 to 8.00; for `O=C1CCc2cc(N3CC[C@](O)(C(=O)NCc4ccc(F)c(Cl)c4)C3=O)ccc2N1` [A247, N-(3-Chloro-4-fluorobenzyl)-(S)-3-hydroxy-2-oxo-1-(2-oxo-1,2,3,4-tetrahydroquinolin-6-yl)-pyrrolidine-3-carboxamide], 6.00 to 8.00.
With `NC(=O)CN1CCC(O)(C(=O)NCc2cc(F)cc(Cl)c2)C1=O` (stereo not drawn) [A248, N-(3-Chloro-5-fluorobenzyl)-1-carbamoylmethyl-3-hydroxy-2-oxopyrrolidine-3-carboxamide], the pIC50 was 5.00 to 6.00.
For `O=C1CCc2cc(N3CC[C@](O)(C(=O)NCc4c(F)cc(Cl)cc4F)C3=O)ccc2N1` [A249, N-(4-Chloro-2,6-difluorobenzyl)-(S)-3-hydroxy-2-oxo-1-(2-oxo-1,2,3,4-tetrahydroquinolin-6-yl)-pyrrolidine-3-carboxamide], the pIC50 was 6.00 to 8.00.
For `O=C1CCc2cc(N3CC[C@](O)(C(=O)NCc4c(F)ccc(Cl)c4F)C3=O)ccc2N1` [A250, N-(3-Chloro-2,6-difluorobenzyl)-(S)-3-hydroxy-2-oxo-1-(2-oxo-1,2,3,4-tetrahydroquinolin-6-yl)-pyrrolidine-3-carboxamide] the value was 6.00 to 8.00; for `O=C(NCc1cc(F)cc(F)c1)C1(O)CCCN(CC2CCC2)C1=O` (stereo not drawn) [A252, N-(3,5-Difluorobenzyl)-1-cyclobutylmethyl-3-hydroxy-2-oxopiperidine-3-carboxamide], 5.00 to 6.00; for `O=C(NCc1cccc(F)c1)C1(O)CCCN(Cc2ccc(F)c(F)c2)C1=O` (stereo not drawn) [A253, N-(3-Fluorobenzyl)-1-(3,4-difluorobenzyl)-3-hydroxy-2-oxo-piperidine-3-carboxamide], 5.00 to 6.00.
For `O=C(NCc1cccc(F)c1)[C@@]1(O)CCCN(Cc2cccc(F)c2F)C1=O` [A254, N-(3-Fluorobenzyl)-(S)-1-(2,3-difluorobenzyl)-3-hydroxy-2-oxo-piperidine-3-carboxamide] the value was 6.00 to 8.00; for `O=C(NCc1ccc(F)cc1)[C@@]1(O)CCCN(Cc2cccc(F)c2F)C1=O` [A255, N-(4-Fluorobenzyl)-(S)-1-(2,3-difluorobenzyl)-3-hydroxy-2-oxo-piperidine-3-carboxamide], 5.00 to 6.00; for `O=C(NCc1cccc(F)c1)[C@@]1(O)CCCN(CC2CCCCC2)C1=O` [A256, N-(3-fluorobenzyl)-(S)-1-cyclohexylmethyl-3-hydroxy-2-oxopiperidine-3-carboxamide], 6.00 to 8.00.
The result for `O=C(NCc1ccc(F)cc1)C1(O)CCCN(Cc2ccc(F)c(F)c2)C1=O` (stereo not drawn) [A257, N-(4-Fluorobenzyl)-1-(3,4-difluorobenzyl)-3-hydroxy-2-oxo-piperidine-3-carboxamide] reads 5.00 to 6.00; that for `Cc1cc(CNC(=O)C2(O)CCCN(Cc3ccc(F)c(F)c3)C2=O)no1` (stereo not drawn) [A258, N-(5-Methylisoxazol-3-ylmethyl)-1-(3,4-difluorobenzyl)-3-hydroxy-2-oxopiperidine-3-carboxamide], under 5.00.
For the molecule `O=C(NCc1ccccn1)[C@@]1(O)CCCN(Cc2cccc(F)c2F)C1=O` [A259, N-(Pyridin-2-ylmethyl)-(S)-1-(2,3-difluorobenzyl)-3-hydroxy-2-oxopiperidine-3-carboxamide], the pIC50 is under 5.00.
In the case of `O=C(NCc1ccccn1)[C@]1(O)CCCN(Cc2cccc(F)c2F)C1=O` [A260, N-(Pyridin-2-ylmethyl)-(R)-1-(2,3-difluorobenzyl)-3-hydroxy-2-oxopiperidine-3-carboxamide], the pIC50 is under 5.00.
Regarding `O=C(NCc1cccc(F)c1)[C@]1(O)CCCN(Cc2cccc(F)c2F)C1=O` [A261, N-(3-Fluorobenzyl)-(R)-1-(2,3-difluorobenzyl)-3-hydroxy-2-oxo-piperidine-3-carboxamide], the pIC50 is under 5.00.
The result for `O=C(NCc1ccc(F)cc1)[C@]1(O)CCCN(Cc2cccc(F)c2F)C1=O` [A262, N-(4-Fluorobenzyl)-(R)-1-(2,3-difluorobenzyl)-3-hydroxy-2-oxo-piperidine-3-carboxamide] reads under 5.00; that for `O=C(NCc1cccc(F)c1)[C@]1(O)CCCN(CC2CCCCC2)C1=O` [A263, N-(3-fluorobenzyl)-(R)-1-cyclohexylmethyl-3-hydroxy-2-oxopiperidine-3-carboxamide], under 5.00; that for `O=C1CCc2cc(N3CC[C@](O)(C(=O)NCc4ccc(Cl)c(F)c4)C3=O)ccc2N1` [A265, N-(4-Chloro-3-fluorobenzyl)-(S)-3-hydroxy-2-oxo-1-(2-oxo-1,2,3,4-tetrahydroquinolin-6-yl)-pyrrolidine-3-carboxamide], 5.00 to 6.00.
The result for `O=C(N1Cc2ccccc2C1)C1(O)CCN(c2ccccc2)C1=O` (stereo not drawn) [A267, 3-(1,3-dihydroisoindole-2-carbonyl)-3-hydroxy-1-phenylpyrrolidin-2-one] reads 5.00 to 6.00.
For `O=C1N(Cc2ccccc2)CCC1(O)C(=O)N1Cc2ccccc2C1` (stereo not drawn) [A268, 1-benzyl-3-(1,3-dihydroisoindole-2-carbonyl)-3-hydroxypyrrolidin-2-one] the value was under 5.00; for `O=C(NCc1cc(F)cc(Cl)c1)C1(O)CCN(Cc2nc3ccccc3[nH]2)C1=O` (stereo not drawn) [A269, N-(3-chloro-5-fluorobenzyl)-1-(1H-benzimidazol-2-ylmethyl)-3-hydroxy-2-oxopyrrolidine-3-carboxamide], 5.00 to 6.00; for `O=C(NCc1cc(F)cc(Cl)c1)C1(O)CCN(Cc2nc3ccccc3s2)C1=O` (stereo not drawn) [A270, N-(3-Chloro-5-fluorobenzyl)-1-benzothiazol-2-ylmethyl-3-hydroxy-2-oxopyrrolidine-3-carboxamide], 6.00 to 8.00.
Take `O=C(O)CCN1CCC(O)(C(=O)NCc2cc(F)cc(Cl)c2)C1=O` (stereo not drawn) [A271, 3-[3-(3-Chloro-5-fluorobenzylcarbamoyl)-3-hydroxy-2-oxopyrrolidin-1-yl]-propionic acid]: the pIC50 is under 5.00.
For the molecule `Cn1cncc1CN1CCC(O)(C(=O)NCc2cc(F)cc(Cl)c2)C1=O` (stereo not drawn) [A272, N-(3-Chloro-5-fluorobenzyl)-3-hydroxy-1-(3-methyl-3H-imidazol-4-ylmethyl)-2-oxo-pyrrolidine-3-carboxamide], the pIC50 was 5.00 to 6.00.
Regarding `O=C(NCc1cc(F)cc(Cl)c1)C1(O)CCN(C[C@H]2CC[C@H](C(=O)O)CC2)C1=O` (stereo partly drawn) [A273, 4-[3-(3-Chloro-5-fluorobenzylcarbamoyl)-3-hydroxy-2-oxopyrrolidin-1-yl-methyl]cyclohexanecarboxylic acid], the pIC50 is 5.00 to 6.00.
